Results: PMC10050199 (Sensors and Actuators. B, Chemical, 2023)

Tests used:
SARS-CoV-2 SP [1] = target: T1, SARS-CoV-2 SP (Severe acute respiratory syndrome coronavirus 2, UniProt P0DTC2)
SARS-CoV-2 S1 = type: binding
SARS-CoV-2 SP [2] = target: T1, SARS-CoV-2 SP; remark: listed apart in the source

Sequence | frequency of peptide sequence among sequenced phage monoclonals (SARS-CoV-2 SP [1]) | binding to SARS-CoV-2 S1 (SARS-CoV-2 S1) | binding to SARS-CoV-2 SP (absorbance) (SARS-CoV-2 SP [2])
WNLDLSQWLPPM [P1] | 16/30 | – | –
WNLDLSQWLPPM [P1-phage] | – | may also bind to SARS-CoV-2 S1 loosely | higher absorbance value and was significantly higher than that of the control
